#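 Five concentrations, 48 hours, 96-well plates. Here, GI50 denotes the concentration required for 50% inhibition of growth. At the TGI there is no net growth.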
# Legend:
# Assay in all cases: inhibition of tumour cell growth, NCI panel, 48 h
# 786-0 renal = test system: 786-0 renal
# A498 renal = test system: A498 renal
# A549 NSCLC = test system: A549 NSCLC
# ACHN renal = test system: ACHN renal
# BT-549 breast = test system: BT-549 breast
# CAKI-1 renal = test system: CAKI-1 renal
# CCRF-CEM leukemia = test system: CCRF-CEM leukemia
# COLO 205 colon = test system: COLO 205 colon
# DU-145 prostate = test system: DU-145 prostate
# HCC-2998 colon = test system: HCC-2998 colon
# HCT-116 colon = test system: HCT-116 colon
# HCT-15 colon = test system: HCT-15 colon
# HL-60(TB) leukemia = test system: HL-60(TB) leukemia
# HOP-62 NSCLC = test system: HOP-62 NSCLC
# HOP-92 NSCLC = test system: HOP-92 NSCLC
# HS 578T breast = test system: HS 578T breast
# HT29 colon = test system: HT29 colon
# IGROV1 ovarian = test system: IGROV1 ovarian
# K-562 leukemia = test system: K-562 leukemia
# KM12 colon = test system: KM12 colon
# LOX IMVI melanoma = test system: LOX IMVI melanoma
# M14 melanoma = test system: M14 melanoma
# MALME-3M melanoma = test system: MALME-3M melanoma
# MCF7 breast = test system: MCF7 breast
# MDA-MB-231 breast = test system: MDA-MB-231 breast
# MDA-MB-435 = test system: MDA-MB-435
# MOLT-4 leukemia = test system: MOLT-4 leukemia
# NCI-H226 lung = test system: NCI-H226 lung
# NCI-H23 lung = test system: NCI-H23 lung
# NCI-H460 lung = test system: NCI-H460 lung
# NCI-H522 lung = test system: NCI-H522 lung
# NCI/ADR-RES ovarian = test system: NCI/ADR-RES ovarian
# OVCAR-3 ovarian = test system: OVCAR-3 ovarian
# OVCAR-4 ovarian = test system: OVCAR-4 ovarian
# OVCAR-5 ovarian = test system: OVCAR-5 ovarian
# OVCAR-8 ovarian = test system: OVCAR-8 ovarian
# PC-3 prostate = test system: PC-3 prostate
# RPMI-8226 leukemia = test system: RPMI-8226 leukemia
# RXF 393 renal = test system: RXF 393 renal
# SF-268 CNS = test system: SF-268 CNS
# SF-295 CNS = test system: SF-295 CNS
# SF-539 CNS = test system: SF-539 CNS
# SK-MEL-2 melanoma = test system: SK-MEL-2 melanoma
# SK-MEL-28 melanoma = test system: SK-MEL-28 melanoma
# SK-MEL-5 melanoma = test system: SK-MEL-5 melanoma
# SK-OV-3 ovarian = test system: SK-OV-3 ovarian
# SN12C renal = test system: SN12C renal
# SNB-19 CNS = test system: SNB-19 CNS
# SNB-75 CNS = test system: SNB-75 CNS
# SR leukemia = test system: SR leukemia
# SW-620 colon = test system: SW-620 colon
# T-47D breast = test system: T-47D breast
# TK-10 renal = test system: TK-10 renal
# U251 CNS = test system: U251 CNS
# UACC-62 melanoma = test system: UACC-62 melanoma
# UO-31 renal = test system: UO-31 renal
smiles,measurement,setting,value
O=c1c2ccccc2nc(-c2ccccc2Cl)n1-c1nnc(C(F)(F)F)s1,GI50,786-0 renal,3.18 µM
same,TGI,786-0 renal,11.4 µM
same,GI50,A498 renal,1.77 µM
same,TGI,A498 renal,5.07 µM
same,GI50,A549 NSCLC,3.26 µM
same,TGI,A549 NSCLC,> 100 µM
same,GI50,ACHN renal,3.74 µM
same,TGI,ACHN renal,27.7 µM
same,GI50,BT-549 breast,3.36 µM
same,TGI,BT-549 breast,10.9 µM
same,GI50,CAKI-1 renal,2.82 µM
same,TGI,CAKI-1 renal,10.1 µM
same,GI50,CCRF-CEM leukemia,3.13 µM
same,TGI,CCRF-CEM leukemia,40.7 µM
same,GI50,COLO 205 colon,3.86 µM
same,TGI,COLO 205 colon,21.3 µM
same,GI50,DU-145 prostate,5.03 µM
same,TGI,DU-145 prostate,> 100 µM
same,GI50,HCC-2998 colon,4.24 µM
same,TGI,HCC-2998 colon,19.6 µM
same,GI50,HCT-116 colon,2.7 µM
same,TGI,HCT-116 colon,10.1 µM
same,GI50,HCT-15 colon,2.94 µM
same,TGI,HCT-15 colon,15 µM
same,GI50,HL-60(TB) leukemia,2.38 µM
same,TGI,HL-60(TB) leukemia,8.51 µM
same,GI50,HOP-62 NSCLC,6.09 µM
same,TGI,HOP-62 NSCLC,29.7 µM
same,GI50,HOP-92 NSCLC,0.514 µM
same,TGI,HOP-92 NSCLC,3.43 µM
same,GI50,HS 578T breast,2.38 µM
same,TGI,HS 578T breast,9.3 µM
same,GI50,HT29 colon,3.18 µM
same,TGI,HT29 colon,13.6 µM
same,GI50,IGROV1 ovarian,4.17 µM
same,TGI,IGROV1 ovarian,> 100 µM
same,GI50,K-562 leukemia,3.77 µM
same,TGI,K-562 leukemia,> 100 µM
same,GI50,KM12 colon,3.68 µM
same,TGI,KM12 colon,14.1 µM
same,GI50,LOX IMVI melanoma,3.37 µM
same,TGI,LOX IMVI melanoma,14.2 µM
same,GI50,M14 melanoma,4.17 µM
same,TGI,M14 melanoma,23.7 µM
same,GI50,MALME-3M melanoma,2.51 µM
same,TGI,MALME-3M melanoma,7.35 µM
same,GI50,MCF7 breast,3.03 µM
same,TGI,MCF7 breast,> 100 µM
same,GI50,MDA-MB-231 breast,2.59 µM
same,TGI,MDA-MB-231 breast,9.38 µM
same,GI50,MDA-MB-435,3.19 µM
same,TGI,MDA-MB-435,53.1 µM
same,GI50,MOLT-4 leukemia,3.99 µM
same,TGI,MOLT-4 leukemia,20.4 µM
same,GI50,NCI-H226 lung,2.4 µM
same,TGI,NCI-H226 lung,8.55 µM
same,GI50,NCI-H23 lung,3.23 µM
same,TGI,NCI-H23 lung,17.3 µM
same,GI50,NCI-H460 lung,3.38 µM
same,TGI,NCI-H460 lung,23.3 µM
same,GI50,NCI-H522 lung,2.43 µM
same,TGI,NCI-H522 lung,8.25 µM
same,GI50,NCI/ADR-RES ovarian,3.13 µM
same,TGI,NCI/ADR-RES ovarian,> 100 µM
same,GI50,OVCAR-3 ovarian,3.25 µM
same,TGI,OVCAR-3 ovarian,11.4 µM
same,GI50,OVCAR-4 ovarian,3.15 µM
same,TGI,OVCAR-4 ovarian,> 100 µM
same,GI50,OVCAR-5 ovarian,4.33 µM
same,TGI,OVCAR-5 ovarian,43.8 µM
same,GI50,OVCAR-8 ovarian,3.37 µM
same,TGI,OVCAR-8 ovarian,> 100 µM
same,GI50,PC-3 prostate,2.76 µM
same,TGI,PC-3 prostate,14.1 µM
same,GI50,RPMI-8226 leukemia,2.26 µM
same,TGI,RPMI-8226 leukemia,8.13 µM
same,GI50,RXF 393 renal,2.77 µM
same,TGI,RXF 393 renal,14.4 µM
same,GI50,SF-268 CNS,4.36 µM
same,TGI,SF-268 CNS,> 100 µM
same,GI50,SF-295 CNS,2.44 µM
same,TGI,SF-295 CNS,9.11 µM
same,GI50,SF-539 CNS,3.21 µM
same,TGI,SF-539 CNS,13 µM
same,GI50,SK-MEL-2 melanoma,2.72 µM
same,TGI,SK-MEL-2 melanoma,6.27 µM
same,GI50,SK-MEL-28 melanoma,4.63 µM
same,TGI,SK-MEL-28 melanoma,90.9 µM
same,GI50,SK-MEL-5 melanoma,1.99 µM
same,TGI,SK-MEL-5 melanoma,4.91 µM
same,GI50,SK-OV-3 ovarian,4.01 µM
same,TGI,SK-OV-3 ovarian,39 µM
same,GI50,SN12C renal,3.01 µM
same,TGI,SN12C renal,> 100 µM
same,GI50,SNB-19 CNS,3.66 µM
same,TGI,SNB-19 CNS,> 100 µM
same,GI50,SNB-75 CNS,3.47 µM
same,TGI,SNB-75 CNS,> 100 µM
same,GI50,SR leukemia,3.73 µM
same,TGI,SR leukemia,24.6 µM
same,GI50,SW-620 colon,3.4 µM
same,TGI,SW-620 colon,15.9 µM
same,GI50,T-47D breast,3.76 µM
same,TGI,T-47D breast,> 100 µM
same,GI50,TK-10 renal,3.99 µM
same,TGI,TK-10 renal,24 µM
same,GI50,U251 CNS,2.46 µM
same,TGI,U251 CNS,12.9 µM
same,GI50,UACC-62 melanoma,2.85 µM
same,TGI,UACC-62 melanoma,14.4 µM
same,GI50,UO-31 renal,2.75 µM
same,TGI,UO-31 renal,11.6 µM
